System: cancer-related neuropathic pain
Assay: Open label dose escalation study of flupirtine, case studies JE and RM
Settings: for WHO PERFORMANCE STATUS: 0=fully active, 4=completely disabled; for WHO PERFORMANCE STATUS / SCORE SLEEP / SCORE POOR CONCENTRATION: day 1 baseline 3; for neuropathic dwascriminant function score: >0 = neuropathic, day 1 baseline 2.448; for freezing pain score / score for increased pain due to touch / score for increased pain due to weather changes / squeezing pain score: day 1 baseline 0; for burning pain score: day 1 baseline 90; for electric pain score / for shooting pain score / numbness score / score for overly sensitive to touch / tingling pain score / unpleasant pain score: day 1 baseline 95; for overwhelming pain score: day 1 baseline 98; for SCORE MOOD / SCORE RELATIONSHIPS / SCORE SLEEP / SCORE GENERAL ACTIVITY / SCORE WALKING / SCORE ENJOYMENT / SCORE TOTAL ACTIVITY: pain interference 1-10; for SCORE MOOD / SCORE RELATIONSHIPS / SCORE CONSTIPATION / SCORE INDIGESTION / LEAST PAIN LAST 24 HRS / PAIN SCORE RIGHT NOW: day 1 baseline 1; for SCORE GENERAL ACTIVITY: day 1 baseline 5; for SCORE WALKING: day 1 baseline 7; for SCORE ENJOYMENT / SCORE TOTAL ACTIVITY / AVERAGE PAIN LAST 24 HOURS: day 1 baseline 8; for SCORE CONSTIPATION / SCORE INDIGESTION / SCORE NAUSEA / SCORE UN[…] GAIT / SCORE POOR CONCENTRATION / SCORE DROWSINESS / SCORE POOR APPETITE: scale 1-4; for SCORE NAUSEA / SCORE UN[…] GAIT: day 1 baseline 2; for SCORE DROWSINESS / SCORE POOR APPETITE: day 1 baseline 4; for LEAST PAIN LAST 24 HRS / PAIN SCORE RIGHT NOW / AVERAGE PAIN LAST 24 HOURS / WORST PAIN SCORE LAST 24 HOURS: scale to 10; for WORST PAIN SCORE LAST 24 HOURS: day 1 baseline 10
[1] = JE day 2, flupirtine 100 mg qid
[2] = JE day 3, flupirtine 100 mg qid
[3] = JE day 4, flupirtine 200 mg qid
[4] = JE day 5, flupirtine 100 mg qid

## CCOC(=O)Nc1ccc(NCc2ccc(F)cc2)nc1N [flupirtine]
[1]
  WHO PERFORMANCE STATUS: 3
  neuropathic dwascriminant function score: −1.238
  freezing pain score: 0
  score for increased pain due to touch: 0
  score for increased pain due to weather changes: 0
  squeezing pain score: 0
  burning pain score: 20
  electric pain score: 0
  for shooting pain score: 10
  numbness score: 0
  score for overly sensitive to touch: 0
  tingling pain score: 0
  unpleasant pain score: 0
  overwhelming pain score: 0
  SCORE MOOD: 1
  SCORE RELATIONSHIPS: 1
  SCORE SLEEP: 1
  SCORE GENERAL ACTIVITY: 1
  SCORE WALKING: 1
  SCORE ENJOYMENT: 1
  SCORE TOTAL ACTIVITY: 1
  SCORE CONSTIPATION: 3
  SCORE INDIGESTION: 1
  SCORE NAUSEA: 1
  SCORE UN[…] GAIT: 1
  SCORE POOR CONCENTRATION: 1
  SCORE DROWSINESS: 4
  SCORE POOR APPETITE: 1
  LEAST PAIN LAST 24 HRS: 0
  PAIN SCORE RIGHT NOW: 0
  AVERAGE PAIN LAST 24 HOURS: 2
  WORST PAIN SCORE LAST 24 HOURS: 2
[2]
  WHO PERFORMANCE STATUS: 2
  neuropathic dwascriminant function score: −1.408
  freezing pain score: 0
  score for increased pain due to touch: 0
  score for increased pain due to weather changes: 0
  squeezing pain score: 0
  burning pain score: 0
  electric pain score: 0
  for shooting pain score: 0
  numbness score: 0
  score for overly sensitive to touch: 0
  tingling pain score: 0
  unpleasant pain score: 0
  overwhelming pain score: 0
  SCORE MOOD: 1
  SCORE RELATIONSHIPS: 1
  SCORE SLEEP: 1
  SCORE GENERAL ACTIVITY: 1
  SCORE WALKING: 1
  SCORE ENJOYMENT: 1
  SCORE TOTAL ACTIVITY: 1
  SCORE CONSTIPATION: 1
  SCORE INDIGESTION: 1
  SCORE NAUSEA: 1
  SCORE UN[…] GAIT: 1
  SCORE POOR CONCENTRATION: 1
  SCORE DROWSINESS: 3
  SCORE POOR APPETITE: 1
  LEAST PAIN LAST 24 HRS: 0
  PAIN SCORE RIGHT NOW: 0
  AVERAGE PAIN LAST 24 HOURS: 0
  WORST PAIN SCORE LAST 24 HOURS: 0
[3]
  WHO PERFORMANCE STATUS: 3
  neuropathic dwascriminant function score: −1.408
  freezing pain score: 0
  score for increased pain due to touch: 0
  score for increased pain due to weather changes: 0
  squeezing pain score: 0
  burning pain score: 0
  electric pain score: 0
  for shooting pain score: 0
  numbness score: 0
  score for overly sensitive to touch: 0
  tingling pain score: 0
  unpleasant pain score: 0
  overwhelming pain score: 0
  SCORE MOOD: 1
  SCORE RELATIONSHIPS: 1
  SCORE SLEEP: 1
  SCORE WALKING: 1
  SCORE ENJOYMENT: 1
  SCORE TOTAL ACTIVITY: 1
  SCORE CONSTIPATION: 3
  SCORE INDIGESTION: 1
  SCORE NAUSEA: 1
  SCORE UN[…] GAIT: 4
  SCORE POOR CONCENTRATION: 2
  SCORE DROWSINESS: 4
  SCORE POOR APPETITE: 1
  LEAST PAIN LAST 24 HRS: 0
  PAIN SCORE RIGHT NOW: 0
  AVERAGE PAIN LAST 24 HOURS: 0
  WORST PAIN SCORE LAST 24 HOURS: 0
[4]
  WHO PERFORMANCE STATUS: 4
  neuropathic dwascriminant function score: −1.408
  freezing pain score: 0
  score for increased pain due to touch: 0
  score for increased pain due to weather changes: 0
  squeezing pain score: 0
  burning pain score: 0
  electric pain score: 0
  for shooting pain score: 0
  numbness score: 0
  score for overly sensitive to touch: 0
  tingling pain score: 0
  unpleasant pain score: 0
  overwhelming pain score: 0
  SCORE MOOD: 1
  SCORE RELATIONSHIPS: 1
  SCORE SLEEP: 1
  SCORE GENERAL ACTIVITY: 1

From US8268821B2, “Methods and compositions” (priority 2003, dated 2012)
